This is an account of results in US20210000911A1, “COMPOSITIONS AND METHODS FOR PROTECTING EPITHELIAL AND BARRIER INTEGRITY” (OCUNEXUS THERAPEUTICS, INC., priority 2019, published 2021).

“Also recorded” adds a separate entry of the source.

Assay [1] concerns ARPE-19 cells. Kind of assay: Lactate dehydrogenase (LDH) release assay. To be noted: ARPE-19, HG + cytokines, 72 h. The assay is classed as cell-based, Human. As to the method:
(§1) Cell Culture—Human adult retinal pigment epithelial cells (ARPE-19; American Type Culture Collection, USA) were cultured in Dulbecco's Modified Eagle Medium Nutrient Mixture F-12 (DMEM-F12; Thermofisher Scientific Inc., USA) supplemented with 10% foetal bovine serum (FBS; Invitrogen, USA) and a 1× antibiotics and antimycotics mixture (AA, 100× stock) at 37° C. in a humidified 5% CO2 incubator. Cells were grown in T75 flasks and the medium was changed twice per week until confluent. […]
Lactate Dehydrogenase (LDH) assay—Cells were seeded at 2.5×10^5 cells/mL in 96-well plates until confluent after which the culture medium was changed to treatments in serum-free DMEM-F12 containing 1×AA for 72 h. […] The amount of LDH released was assessed using an LDH assay kit as per manufacturer instructions (Sigma-Aldrich, USA). […] A Synergy 2 multi-mode plate reader (BioTek Instruments Inc., USA) was used to measure the absorbance of the formazan dye in the medium at 490 nm (OD490). LDH release (%) was calculated relative to basal conditions.

The subject of assay [2] is ARPE-19 cells. As to the kind of experiment: Trans-epithelial electrical resistance (TEER) of ARPE-19 monolayer after HG and cytokine challenge. The class given is cell-based, Human. To be noted: ARPE-19, HG 32.5 mM + TNF-α and IL-1β 10 ng/mL, Peptide5 25 μM. As to the method: Cell Culture—Human adult retinal pigment epithelial cells (ARPE-19; American Type Culture Collection, USA) were cultured in Dulbecco's Modified Eagle Medium Nutrient Mixture F-12 (DMEM-F12; Thermofisher Scientific Inc., USA) supplemented with 10% foetal bovine serum (FBS; Invitrogen, USA) and a 1× antibiotics and antimycotics mixture (AA, 100× stock) at 37° C. in a humidified 5% CO2 incubator. Cells were grown in T75 flasks and the medium was changed twice per week until confluent.
HG and/or cytokine challenge—At passage 6-12, cells were plated at 2.5×10^5 cells/mL in 8-well chamber slides for immunohistochemical studies, 6-well plates for TEER and FITC-dextran studies or 96-well plates for the […] dehydrogenase (LDH) and ATP release assay until confluent after which the culture medium was changed to treatments in serum-free DMEM-F12 containing 1×AA for 24 h. […]
Measurement of Trans-Epithelial Electrical Resistance (TEER)—Cells were seeded at 2.5×10^5 cells/mL on polyester membranes in Transwell® 6-well plates (Corning Incorporated, USA) in growth medium and incubated for 72 h. […] Net TEER values were calculated by subtracting the resistance in Transwell inserts without cells from the experimental values obtained from chamber containing cells. […] The sample size was three readings per well, repeated three times in separate experiments.

Assay [3] relates to ARPE-19 cells. Kind of assay: Connexin43 immunohistochemistry (gap junction plaque localisation). The assay is classed as cell-based, Human. Conditions: ARPE-19, HG + cytokines, 72 h. How it is done:
as §1
(§2) Image analysis and quantification of collagen IV immunolabelling—Images were taken on an Olympus FV1000 confocal laser scanning microscope (Olympus, Japan). […] Both ZO-1 and connexin43 expression were qualitatively assessed for changes in localisation. Collagen IV labelling was quantified from four images taken per well and the experiment was repeated three times. […] The total area covered by collagen IV was then quantified using the ‘measure’ feature in ImageJ. Collagen IV results were expressed as a percentage of untreated (basal) cells.

The test system of assay [4] is ARPE-19 cells. As to the kind of experiment: ZO-1 immunohistochemistry (localisation). The class given is cell-based, Human. Conditions: ARPE-19, HG + cytokines, Peptide5 25 μM, 72 h. How it is done: as §1, §2
The target in a further assay is connexin43 hemichannel (human, UniProt P17302 2-382). As to the kind of experiment: cell-based or functional assay.
connexin43 hemichannel, sequence (P17302 2-382): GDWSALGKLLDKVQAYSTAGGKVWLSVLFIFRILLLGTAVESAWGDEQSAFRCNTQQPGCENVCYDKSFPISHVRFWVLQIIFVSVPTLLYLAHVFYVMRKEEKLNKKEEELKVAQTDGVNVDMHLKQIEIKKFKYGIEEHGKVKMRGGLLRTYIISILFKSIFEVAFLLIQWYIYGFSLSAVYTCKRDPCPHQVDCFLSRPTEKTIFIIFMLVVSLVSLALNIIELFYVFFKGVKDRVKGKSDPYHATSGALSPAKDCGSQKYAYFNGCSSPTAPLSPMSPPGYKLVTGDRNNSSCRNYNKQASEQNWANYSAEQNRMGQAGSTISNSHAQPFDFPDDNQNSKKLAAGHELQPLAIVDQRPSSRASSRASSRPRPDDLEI
Setting [5] is: Peptide5 25 μM plus exogenous ATP 100 nM.

As for “H-Val-Asp-Cys-Phe-Leu-Ser-Arg-Pro-Thr-Glu-Lys-Thr-OH (H-VDCFLSRPTEKT-OH) [Peptide5]”, the “LDH release with exogenously added ATP” value in the assay on ARPE-19 cells [1] (setting [5]) is “once-again increased LDH release; also recorded: LDH levels were increased to injury levels”. Besides, the “LDH release relative to basal conditions” value with ARPE-19 cells [1] (Peptide5 25 μM) is “LDH release remains low; also recorded: prevented LDH release relative to basal conditions; also recorded: reduced by Peptide5 treatment”. The “TEER relative to basal conditions” value in the assay with ARPE-19 cells [2] (48 h) is “no statistically significant difference between Peptide5-treated and basal cells; also recorded: prevented a decrease in TEER at both time-points”; in the assay with ARPE-19 cells [2] (72 h), “no statistically significant difference between Peptide5-treated and basal cells; also recorded: prevented a decrease in TEER at both time-points”. Besides, the “Connexin43 localisation with exogenously added ATP (qualitative)” value with ARPE-19 cells [3] (setting [5]) is “change in connexin43 gap junction localisation; also recorded: again a loss of connexin43 at cell membranes”. In the assay on ARPE-19 cells [3] (Peptide5 25 μM), the “Connexin43 localisation at the cell membrane (qualitative)” value was “protected against the redistribution of connexin43 localisation away from the cell membrane and into the cytoplasm; also recorded: connexin43 is kept in its normal pattern; also recorded: maintained connexin43 primarily in gap junction plaques, similar to basal conditions”. Moreover, the “ZO-1 localisation at the cell membrane (qualitative)” value with ARPE-19 cells [4] is recorded as “maintained ZO-1 localisation to cell membranes similar to basal conditions”.
H-VDCFLSRPTEKT-OH [Peptide5 (H-Val-Asp-Cys-Phe-Leu-Ser-Arg-Pro-Thr-Glu-Lys-Thr-OH)]: the “FITC-dextran permeability at 72 h (% relative to blank wells), ARPE-19 monolayer with HG and cytokines, Peptide5 at 25 uM” value with connexin43 hemichannel was found to be 33.2%.
